In series [1] the test system is HL-60, THP-1, OCI-AML3, KG-1, Kasumi-1 and ME-1. In words: Morphology assessment of stained cytospins. It counts as cell-based, human. Conditions: 10 µM, 4-day treatment, six cell lines. As to the method:
(§1) Cells were treated with 1000 structurally diverse small molecules selected from a commercial library. A single point testing concentration of 10 µM was used. After 4 days, cells were stained with a CD11b antibody and analysed using flow cytometry. Compounds upregulating CD11b expression greater than 10% in at least three of the cell lines were considered as potential hits. Hit confirmation was undertaken as follows: first, the hit was re-tested at 10 µM both with the CD11b antibody and an isotype control to account for nonspecific binding. Secondly, the effect of the hit on cell proliferation and viability was evaluated through staining with DAPI to evaluate the number of dead cells, and with acridine orange to detect total cell numbers. Thirdly, the induction of differentiation caused by the compounds was confirmed through morphology assessment with Giemsa staining. Finally, the molecule was resynthesised and fully characterised to confirm structural authenticity. This fresh sample was then retested in the CD11b assay to generate a concentration-response curve. The study of proliferation and morphology was performed on a panel of six cell lines: HL-60, THP-1, OCI-AML3, KG-1, Kasumi-1 and ME-1.
Cells were prepared in staining buffer (IMDM, no phenol red + 2% FBS) at a concentration of approximately 1 × 10^5 cells/mL. […]

Series [2] has the same test system. Briefly: Cell counts and viability (acridine orange / DAPI). Conditions: 10 µM, 4 days. It counts as cell-based, human. As to the method:
as §1, with “The study of proliferation and morphology was performed on a panel of six cell lines: HL-60, THP-1, OCI-AML3, KG-1, Kasumi-1 and ME-1.” left out
Solution 13 containing acridin orange and DAPI was purchased from ChemoMetec (Cat 910-3013). After the appropriate cell treatment, one volume of solution 13 was added into 19 volumes of the premixed cell suspension and analysed using the NucleoCounter® NC-300^TM (ChemoMetec).

In a further series the test system is THP-1 cells. Briefly: CD11b expression assay by flow cytometry in THP-1 cells. It counts as cell-based. The note with it: Homo sapiens, 96 h, 4-day treatment, resynthesised sample. The method, then:
as §1, with “The study of proliferation and morphology was performed on a panel of six cell lines: HL-60, THP-1, OCI-AML3, KG-1, Kasumi-1 and ME-1.” left out
(§2) PE mouse-anti-human-CD11b/Mac-1 (ICRF44, Cat 555388) and PE-mouse-IgG1-κ-isotype control (MOPC-21, Cat 555749) were purchased from BD Bioscience. […] Flow cytometry data were collected on an Attune NxT and analysed using the Attune NxT software (Life Technologies).
In general terms: In flow cytometry, cells or beads pass a laser one at a time.

In another series the test system is HL-60 cells. Briefly: CD11b expression assay by flow cytometry in HL-60 cells. It counts as cell-based, human. The note with it: for EC50: Homo sapiens, HL-60, 96 h, 4-day (96 h) treatment, CD11b upregulation, read-out: EC50 [nM], %CD11b response in HL60 cells; for LipE (lipophilic efficiency): LipE = -LogEC50-cLogP, EC50 of CD11b assay in HL-60; for Activity in the CD11b assay: concentration-response. As to the method:
as §1
Thus, structure-activity relationship studies were initiated, where the potency of the new analogues was evaluated through concentration-response testing using the CD11b assay in HL-60 cells. Lipophilic efficiency (LipE), which also accounts for lipophilicity, was also used to compare the quality of the analogues. Even though multiple parameters can influence activity in a cell-based assay, LipE is a useful guide to compare analogues.
PE mouse-anti-human-CD11b/Mac-1 (ICRF44, Cat 555388) and PE-mouse-IgG1-κ-isotype control (MOPC-21, Cat 555749) were purchased from BD Bioscience. Cells were suspended in 100 μL growth media (RPMI + 10% FBS + 1% L-glutamine) at a density of 2 × 10^4 cells/well of a V-bottom 96 well plate (Corning, Cat 3894) and grown for 96 h in the presence of compound at the required concentration. After 96 h, the plate was centrifuged, media was removed, and cells were resuspended in 50 µL of blocking buffer (IMDM, no phenol red + 10% FBS) containing 2.5 μL of either CD11b or isotype control antibody and incubated on ice in the dark for 20 min. Cells were washed twice in 200 μL of staining buffer (IMDM, no phenol red + 1% FBS) before being resuspended in 200 μL of staining buffer containing 1 μg/mL of DAPI to help identify dead cells. Flow cytometry data were collected on an Attune NxT and analysed using the Attune NxT software (Life Technologies).

Series [3] is described as follows: Metabolic stability in mouse S9 fraction. It counts as in vitro ADME. Conditions: ER = Clint/species flow rate (mice: 90 mL/min/kg). As to the method:
(§3) Determination of semi-thermodynamic solubility, metabolic stability in S9 fraction, Caco-2 permeability and PPB were performed by Cyprotex Ltd. (www.cyprotex.com, accessed on 22 October 2021) using their standard assays and as described on their website.
[22] Extraction ratio (ER) is calculated as the measured intrinsic clearance over the hepatic blood flow of each species (90 mL/min/kg for mice). It has the advantage over other parameters (half-life, clearance) that it is independent of the species used

Series [4] is described as follows: Semi-thermodynamic aqueous solubility. It counts as physicochemical. Conditions: thermodynamic from solid. As to the method: as §3
A further series deals with OCI-AML3 cells. Briefly: CD11b expression assay by flow cytometry in OCI-AML3 cells. It counts as cell-based. Conditions: Homo sapiens, OCI-AML-3, 96 h, 4-day treatment, resynthesised sample. The method, then: as §1, with “The study of proliferation and morphology was performed on a panel of six cell lines: HL-60, THP-1, OCI-AML3, KG-1, Kasumi-1 and ME-1.” left out
as §2

A further series deals with T1, porcine neuronal tubulin (Sus scrofa, UniProt P02550+P02554).
T1 construct: performed using porcine neuronal tubulin (Cytoskeleton, Inc, Denver, CO, USA, BK006P); purchased Cytoskeleton, Inc BK006P; host or cells: porcine brain (neuronal) tissue
Briefly: Microtubule (tubulin) polymerisation cell-free assay. It counts as biochemical. The note with it: testing concentrations of up to 100 μM. As to the method: The microtubule polymerisation assay was performed using porcine neuronal tubulin (Cytoskeleton, Inc, Denver, CO, USA, BK006P) as an adaptation of the original method of Shelanski et al. and Lee et al. at Cytoskeleton, Inc.

Series [5] can be described thus: Single dose PK study in male CD-1 mice. It counts as in vivo, mouse. The source says:
In order to undertake a preliminary assessment of the pharmacokinetic (PK) profile of this compound class, three compounds were deemed to have sufficient intrinsic potency, solubility and in vitro metabolic stability properties to progress into a single dose in vivo PK study. […] […] […] Nonetheless, the clearance of the three compounds was high to moderate, and at this dose the in vitro EC50 was not reached.
Male CD-1 mice were used for the PK studies, with three for each treatment. […] Blood concentration was measured by LC-MS/MS over 24 h.

The mark [6] stands for this setting: aqueous (buffer or water not specified).
[7] abbreviates: aqueous (not further specified).
Where [8] appears, read: mouse, whole blood, single dose 3 mg/kg po, blood.

≈ marks a conversion by molar mass, not a printed value.

T1 sequence (P02550 whole entry): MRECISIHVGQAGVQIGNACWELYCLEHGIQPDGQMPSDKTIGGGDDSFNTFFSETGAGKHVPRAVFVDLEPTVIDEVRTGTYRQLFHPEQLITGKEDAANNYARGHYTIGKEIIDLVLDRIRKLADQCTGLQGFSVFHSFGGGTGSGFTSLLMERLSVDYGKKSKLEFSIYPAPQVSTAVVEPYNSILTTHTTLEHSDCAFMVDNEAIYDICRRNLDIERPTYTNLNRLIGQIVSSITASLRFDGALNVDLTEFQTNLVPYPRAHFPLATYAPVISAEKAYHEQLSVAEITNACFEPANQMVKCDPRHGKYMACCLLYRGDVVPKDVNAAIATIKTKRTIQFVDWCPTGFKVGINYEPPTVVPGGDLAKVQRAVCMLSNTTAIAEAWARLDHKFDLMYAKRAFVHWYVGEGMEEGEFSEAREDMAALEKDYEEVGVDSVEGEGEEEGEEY
T1 sequence (P02554 whole entry): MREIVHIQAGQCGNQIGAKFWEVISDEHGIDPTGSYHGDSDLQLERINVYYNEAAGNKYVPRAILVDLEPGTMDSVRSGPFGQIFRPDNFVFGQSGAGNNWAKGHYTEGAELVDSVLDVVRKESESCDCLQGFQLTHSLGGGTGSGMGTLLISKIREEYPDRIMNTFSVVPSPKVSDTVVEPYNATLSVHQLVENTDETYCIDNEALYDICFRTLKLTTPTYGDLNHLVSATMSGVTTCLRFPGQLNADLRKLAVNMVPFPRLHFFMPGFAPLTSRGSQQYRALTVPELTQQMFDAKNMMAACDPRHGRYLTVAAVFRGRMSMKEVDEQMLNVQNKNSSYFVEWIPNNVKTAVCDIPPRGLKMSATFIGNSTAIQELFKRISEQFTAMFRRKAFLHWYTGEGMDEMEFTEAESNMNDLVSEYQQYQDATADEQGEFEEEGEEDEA

`CS(=O)(=O)Nc1cccc(-c2ccc3c(c2)N(CC2CC2)C(=O)COC3)c1` [OXS003976, N-(3-(1-(Cyclopropylmethyl)-2-oxo-1,2,3,5-tetrahydrobenzo[e][1,4]oxazepin-8-yl)phenyl)methanesulfonamide]: the “Cell morphology” value in series [1] is given as “induced morphological changes consistent with differentiation”. The “Cell proliferation and viability” value in [2] was “decreased cell proliferation and viability”. Also, the EC50 (in general, the midpoint of the concentration-response curve) in the series with THP-1 cells stood at 3400 nM; in the series on HL-60 cells (HL-60 cells) it was 770 nM; with OCI-AML3 cells, 950 nM. Besides, the “CD11b expression vs isotype control” value in the series with HL-60 cells (10 µM, 4-day treatment, HL-60 cells) is “upregulated CD11b expression, but not the isotype control”. For the same compound, the “LipE (lipophilic efficiency)” value with HL-60 cells came out at 4.3. For the same compound, the “ER in mS9 (extraction ratio)” value in series [3] is given as 0.54. Also, the solubility (thermodynamic) (in general, solubility found after equilibrating the solid with the medium) in series [4] (setting [6]) was over 200 µM.

As to `CN1C(=O)COCc2ccc(-c3cccc(NS(C)(=O)=O)c3)cc21` [Compound 7, N-(3-(1-Methyl-2-oxo-1,2,3,5-tetrahydrobenzo[e][1,4]oxazepin-8-yl)phenyl)methanesulfonamide], in the series on HL-60 cells (HL-60 cells), the “Activity in the CD11b assay” value is “completely inactive” and the half-maximal effective concentration (EC50) is over 30000 nM. For the same compound, the “ER in mS9 (extraction ratio)” value in [3] is listed as 0.07. Moreover, in [4] (setting [6]), the thermodynamic solubility is over 200 µM.

`CC(C)N1C(=O)COCc2ncc(-c3cccc(NS(C)(=O)=O)c3)cc21` [Compound 42, N-(3-(1-Isopropyl-2-oxo-1,2,3,5-tetrahydropyrido[3,2-e][1,4]oxazepin-8-yl)phenyl)methanesulfonamide]: in the series on HL-60 cells (HL-60 cells), the “Activity in the CD11b assay” value is given as “retained weak activity” and the EC50 amounted to 2200 nM. Moreover, in the series on HL-60 cells, the “LipE (lipophilic efficiency)” value is 4.9. For the same compound, the “ER in mS9 (extraction ratio)” value in [3] is on record as 0.09. In addition, the thermodynamic solubility in series [4] (aqueous medium (buffer not specified)) was over 200 µM.

As to `Cc1ccc(-c2ccc3c(c2)N(C(C)C)C(=O)COC3)cc1NS(C)(=O)=O` [Compound 36, N-(5-(1-Isopropyl-2-oxo-1,2,3,5-tetrahydrobenzo[e][1,4]oxazepin-8-yl)-2-methylphenyl)methanesulfonamide], in the series on HL-60 cells (HL-60 cells), the EC50 is 600 nM. Further, the “LipE (lipophilic efficiency)” value with HL-60 cells stood at 4.1. The “ER in mS9 (extraction ratio)” value in series [3] was found to be 1. The same compound had a thermodynamic solubility in [4] (setting [7]) of over 200 µM.

With `CC(C)N1C(=O)COCc2ccc(-c3ccc(F)c(NS(C)(=O)=O)c3)cc21` [Compound 35, N-(2-Fluoro-5-(1-isopropyl-2-oxo-1,2,3,5-tetrahydrobenzo[e][1,4]oxazepin-8-yl)phenyl)methanesulfonamide], in the series with HL-60 cells (HL-60 cells), the EC50 amounted to 1600 nM. For the same compound, in the series with HL-60 cells, the “LipE (lipophilic efficiency)” value is 4.0. Further, the “ER in mS9 (extraction ratio)” value in series [3] came out at 0.21. Moreover, in [4] (setting [7]), the thermodynamic solubility was over 200 µM.

As for `COc1ccc(-c2ccc3c(c2)N(C(C)C)C(=O)COC3)cc1NS(C)(=O)=O` [Compound 37, N-(5-(1-Isopropyl-2-oxo-1,2,3,5-tetrahydrobenzo[e][1,4]oxazepin-8-yl)-2-methoxyphenyl)methanesulfonamide], the EC50 in the series on HL-60 cells (HL-60 cells) stood at 1200 nM. In addition, the “LipE (lipophilic efficiency)” value with HL-60 cells is 4.2. For the same compound, the “ER in mS9 (extraction ratio)” value in series [3] amounted to 1. This compound returned a solubility (thermodynamic) in [4] (setting [7]) of over 200 µM.

Take `CC(C)N1C(=O)COCc2ccc(-c3ccccc3NS(C)(=O)=O)cc21` [Compound 25, N-(2-(1-Isopropyl-2-oxo-1,2,3,5-tetrahydrobenzo[e][1,4]oxazepin-8-yl)phenyl)methanesulfonamide]: in the series on HL-60 cells (HL-60 cells), the “Activity in the CD11b assay” value was “inactive” and the EC50 was over 30000 nM. At porcine neuronal tubulin, the “Effect on polymerisation of tubulin” value is “did not have an effect”.

For `CS(=O)(=O)Nc1cccc(-c2ccc3c(c2)N(CC(F)(F)F)C(=O)COC3)c1` [Compound 11, N-(3-(2-Oxo-1-(2,2,2-trifluoroethyl)-1,2,3,5-tetrahydrobenzo[e][1,4]oxazepin-8-yl)phenyl)methanesulfonamide], the bioavailability (usually the share of a dose that reaches the circulation, judged against a reference dose that is usually intravenous) in series [5] (mouse, whole blood, 3 mg/kg po vs 0.33 mg/kg iv) amounted to 38%. The half-life (in general, the time needed for the level to fall by half in the phase considered) in series [5] (mouse, whole blood, single dose 3 mg/kg po and 0.33 mg/kg iv, blood, route of parameter not given) is 5.8 h. Moreover, in series [5] (setting [8]), the peak level (Cmax) was 160 ng/mL and the Tmax – broadly, the time from dosing to the highest level – was found to be 0.33 h. In addition, the Vd/F in [5] (mouse, whole blood, single dose 3 mg/kg po, blood, read-out: Vz/F) is 73 L/kg. This compound also displayed a Clobs in series [5] (single dose 0.33 mg/kg iv, blood) of 61 mL/min/kg. Besides, the Clobs/F in series [5] (single dose 3 mg/kg po, blood) came to 159 mL/min/kg. In the series with HL-60 cells (HL-60 cells), the EC50 came to 1900 nM. Moreover, the “LipE (lipophilic efficiency)” value in the series on HL-60 cells came to 3.8. Further, in series [3], the “ER in mS9 (extraction ratio)” value is 0.05. Also, the thermodynamic solubility in series [4] (setting [6]) came out at 33 µM (≈ 13.7 µg/mL).

(Values after article PMC8588310, “Identification and Preliminary Structure-Activity Relationship Studies of 1,5-Dihydrobenzo[e][1,4]oxazepin-2(3H)-ones That Induce Differentiation of Acute Myeloid Leukemia Cells In Vitro” (Molecules, 2021).)
